Read-outs that look alike come from different tables or passages of the source.
Assays:
Type in all cases: cell-based
HeLa = experiment: SRB colorimetric cell growth inhibition assay, HeLa; details: Homo sapiens, HeLa; for GI50: GI=growth inhibition, read-out: GI50 HELA; for CC50: read-out: LC50 HELA; for IC (TGI): read-out: TGI HELA
Method in brief: (§1)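 Tested samples remained on human cancer cell cultures throughout the incubation; viable biomass was then stained with SRB and read colorimetrically.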

SK-BR-3 = experiment: SRB colorimetric cell growth inhibition assay, SK-BR-3; details: Homo sapiens, SK-BR-3, SK-BR-3; for GI50: GI=growth inhibition, read-out: GI50 SK-BR-3; for CC50: read-out: LC50 SK-BR-3; for IC (TGI): read-out: TGI SK-BR-3
Method in brief: as §1

LoVo = experiment: SRB colorimetric cell growth inhibition assay, LoVo; details: Homo sapiens, LoVo; for GI50: GI=growth inhibition, read-out: GI50 LOVO; for CC50: read-out: LC50 LOVO; for IC (TGI): read-out: TGI LOVO
Method in brief: as §1

K-562 = experiment: SRB colorimetric cell growth inhibition assay, K-562; details: Homo sapiens, K562, K-562; for GI50: GI=growth inhibition, read-out: GI50 K-562; for CC50: read-out: LC50 K-562; for IC (TGI): read-out: TGI K-562
Method in brief: as §1

IGROV-ET = experiment: SRB colorimetric cell growth inhibition assay, IGROV-ET (ET-743 resistant); details: Homo sapiens, IGROV-ET; for GI50: GI=growth inhibition, read-out: GI50 IGROV-ET; for CC50: read-out: LC50 IGROV-ET; for IC (TGI): read-out: TGI IGROV-ET
Method in brief: as §1

LoVo-Dox = experiment: SRB colorimetric cell growth inhibition assay, LoVo-Dox (MDR); details: Homo sapiens, LOVO-DOX; for GI50: GI=growth inhibition, read-out: GI50 LOVO-DOX; for CC50: read-out: LC50 LOVO-DOX; for IC (TGI): read-out: TGI LOVO-DOX
Method in brief: as §1

DU-145 = experiment: SRB colorimetric cell growth inhibition assay, DU-145; details: Homo sapiens, DU-145, DU-145; for GI50: GI=growth inhibition, read-out: GI50 DU-145; for CC50: read-out: LC50 DU-145; for IC (TGI): read-out: TGI DU-145
Method in brief: as §1

SK-MEL-28 = experiment: SRB colorimetric cell growth inhibition assay, SK-MEL-28; details: Homo sapiens, SK-MEL-28, MEL-28; for GI50: GI=growth inhibition, read-out: GI50 MEL-28; for CC50: read-out: LC50 MEL-28; for IC (TGI): read-out: TGI MEL-28
Method in brief: as §1

A-549 = experiment: SRB colorimetric cell growth inhibition assay, A-549; details: Homo sapiens, A549, A-549; for GI50: GI=growth inhibition, read-out: GI50 A-549; for CC50: read-out: LC50 A-549; for IC (TGI): read-out: TGI A-549
Method in brief: as §1

PANC-1 = experiment: SRB colorimetric cell growth inhibition assay, PANC-1; details: Homo sapiens, PANC-1, PANC-1; for GI50: GI=growth inhibition, read-out: GI50 PANC-1; for CC50: read-out: LC50 PANC-1; for IC (TGI): read-out: TGI PANC-1
Method in brief: as §1

IGROV = experiment: SRB colorimetric cell growth inhibition assay, IGROV; details: Homo sapiens, IGROV; for GI50: GI=growth inhibition, read-out: GI50 IGROV; for CC50: read-out: LC50 IGROV; for IC (TGI): read-out: TGI IGROV
Method in brief: as §1

HeLa-APL = experiment: SRB colorimetric cell growth inhibition assay, HeLa-APL (aplidine resistant); details: Homo sapiens, HELA-APL; for GI50: GI=growth inhibition, read-out: GI50 HELA-APL; for CC50: read-out: LC50 HELA-APL; for IC (TGI): read-out: TGI HELA-APL
Method in brief: as §1

HT-29 = experiment: SRB colorimetric cell growth inhibition assay, HT-29; details: Homo sapiens, HT-29, HT-29; for GI50: GI=growth inhibition, read-out: GI50 HT-29; for CC50: read-out: LC50 HT-29; for IC (TGI): read-out: TGI HT-29
Method in brief: as §1

LNCaP = experiment: SRB colorimetric cell growth inhibition assay, LNCaP; details: Homo sapiens, LNCaP, LN-caP; for GI50: GI=growth inhibition, read-out: GI50 LN-caP; for CC50: read-out: LC50 LN-caP; for IC (TGI): read-out: TGI LN-caP
Method in brief: as §1

[1] = cell killing (cytotoxic effect)
[2] = total growth inhibition (cytostatic effect)
[3] = LC=cell killing (cytotoxic effect)
[4] = TGI=total growth inhibition (cytostatic effect)

`COc1cc(-c2c3c4cc(OC)c(OC(=O)[C@@H](N)C(C)C)cc4oc(=O)c3n3ccc4cc(OC(=O)[C@@H](N)C(C)C)c(OC)cc4c23)ccc1OC(=O)[C@@H](N)C(C)C` [Compound 195] gave a GI50 (HeLa) of 51.3 nM, a CC50 (HeLa; [1]) of 0.633 µM and an IC (TGI) (HeLa; [2]) of 0.204 µM. It also gave a GI50 (SK-BR-3) of 45.5 nM, a CC50 (SK-BR-3; [1]) of 0.84 µM and an IC (TGI) (SK-BR-3; [2]) of 0.0898 µM. For the same compound, the GI50 (LoVo) was 150 nM, the CC50 (LoVo; [1]) was 0.783 µM and the IC (TGI) (LoVo; [2]) was 0.342 µM. For the same compound, the GI50 (K-562) was 11.7 nM, the CC50 (K-562; [1]) was 0.17 µM and the IC (TGI) (K-562; [2]) was 0.0409 µM. It also gave a GI50 (IGROV-ET) of 41.7 nM, a CC50 (IGROV-ET; [1]) of 2.74 µM and an IC (TGI) (IGROV-ET; [2]) of 0.215 µM. For the same compound, the GI50 (LoVo-Dox) was 0.106 µM, the CC50 (LoVo-Dox; [1]) was 2.5 µM and the IC (TGI) (LoVo-Dox; [2]) was 0.5 µM. For the same compound, the GI50 (DU-145) was 13.7 nM, the CC50 (DU-145; [1]) was 0.0585 µM and the IC (TGI) (DU-145; [2]) was 0.0284 µM. The GI50 (SK-MEL-28) was 44.1 nM, the CC50 (SK-MEL-28; [1]) was 1.94 µM and the IC (TGI) (SK-MEL-28; [2]) was 0.159 µM. It also gave a GI50 (A-549) of 113 nM, a CC50 (A-549; [1]) of 11 µM and an IC (TGI) (A-549; [2]) of 1.15 µM. The GI50 (PANC-1) was 56.9 nM, the CC50 (PANC-1; [1]) was 3.11 µM and the IC (TGI) (PANC-1; [2]) was 0.363 µM. The GI50 (IGROV) was 25 nM, the CC50 (IGROV; [1]) was 0.855 µM and the IC (TGI) (IGROV; [2]) was 0.145 µM. The GI50 (HeLa-APL) was 87.6 nM, the CC50 (HeLa-APL; [1]) was 0.536 µM and the IC (TGI) (HeLa-APL; [2]) was 0.234 µM. For the same compound, the GI50 (HT-29) was 2150 nM, the CC50 (HT-29; [1]) was 8.62 µM and the IC (TGI) (HT-29; [2]) was 4.31 µM. The GI50 (LNCaP) was 22.1 nM, the CC50 (LNCaP; [1]) was 0.365 µM and the IC (TGI) (LNCaP; [2]) was 0.0864 µM.
Compound `COc1cc2c(cc1OC)-c1c(-c3ccc(OC(=O)CCCC[C@@H]4SC[C@@H]5NC(=O)N[C@@H]54)c(OC)c3)c3c4cc(OC)c(OC(=O)CCCC[C@@H]5SC[C@@H]6NC(=O)N[C@@H]65)cc4oc(=O)c3n1CC2` [Compound 47] has a GI50 (HeLa) of 537 nM, a CC50 (HeLa; [3]) of 10.3 µM and an IC (TGI) (HeLa; [4]) of 4.79 µM. The GI50 (SK-BR-3) was 2290 nM, the CC50 (SK-BR-3; [3]) was 10.3 µM and the IC (TGI) (SK-BR-3; [4]) was 6.01 µM. The GI50 (LoVo) was 3970 nM, the CC50 (LoVo; [3]) was 10.3 µM and the IC (TGI) (LoVo; [4]) was 10.3 µM. It also gave a GI50 (K-562) of 564 nM, a CC50 (K-562; [3]) of 10.3 µM and an IC (TGI) (K-562; [4]) of 3.74 µM. For the same compound, the GI50 (IGROV-ET) was 2070 nM, the CC50 (IGROV-ET; [3]) was 10.3 µM and the IC (TGI) (IGROV-ET; [4]) was 10.3 µM. For the same compound, the GI50 (LoVo-Dox) was 8.09 µM, the CC50 (LoVo-Dox; [3]) was 10.3 µM and the IC (TGI) (LoVo-Dox; [4]) was 10.3 µM. It also gave a GI50 (DU-145) of 1080 nM, a CC50 (DU-145; [3]) of 10.3 µM and an IC (TGI) (DU-145; [4]) of 4.61 µM. For the same compound, the GI50 (SK-MEL-28) was 2070 nM, the CC50 (SK-MEL-28; [3]) was 10.3 µM and the IC (TGI) (SK-MEL-28; [4]) was 10.3 µM. The GI50 (A-549) was 3260 nM, the CC50 (A-549; [3]) was 10.3 µM and the IC (TGI) (A-549; [4]) was 10.3 µM. For the same compound, the GI50 (PANC-1) was 3860 nM, the CC50 (PANC-1; [3]) was 10.3 µM and the IC (TGI) (PANC-1; [4]) was 10.3 µM. It also gave a GI50 (IGROV) of 764 nM, a CC50 (IGROV; [3]) of 10.3 µM and an IC (TGI) (IGROV; [4]) of 10.3 µM. It also gave a GI50 (HeLa-APL) of 5750 nM, a CC50 (HeLa-APL; [3]) of 10.3 µM and an IC (TGI) (HeLa-APL; [4]) of 10.3 µM. For the same compound, the GI50 (HT-29) was 1250 nM, the CC50 (HT-29; [3]) was 10.3 µM and the IC (TGI) (HT-29; [4]) was 10.3 µM. It also gave a GI50 (LNCaP) of 88.4 nM, a CC50 (LNCaP; [3]) of 5.87 µM and an IC (TGI) (LNCaP; [4]) of 1.59 µM.
